Patent US20200155731A1, “DEVICE AND METHOD FOR PROMOTING RAPID STRUT COVERAGE AND VASCULAR ENDOTHELIAL COVERAGE” (priority 2017, published 2020)

Tests used:
human vascular EC = assay: EC proliferation in bottles containing human EC, gene silencers vehicle lentivirus and plasmid; type: cell-based; conditions: Experiment 2; lentivirus vehicle for siRNA; FIG. 2
Experimental: (§1) Therefore, Experiment 2 was carried out with the following groups: lentivirus+gene silencer TNFRSF11B-siRNA, lentivirus+gene silencer NCF4-siRNA, full control (no vehicle and no drug), lentivirus+gene silencer SM22a-siRNA+glyceraldehyde 3-phosphate dehydrogenase (GAPDH) (vehicle control 1), lentivirus+gene silencer MYH11-siRNA+GAPDH (vehicle control 2), sirolimus (drug control 1), and paclitaxel (drug control 2).
(§2) TNFRSF11B-siRNA and NCF4-siRNA are gene silencers of the TNFRSF11B and NCF4 genes, respectively. The delivery system of gene silencers was developed by inserting the respective gene silencers in a plasmid which is carried by a lentivirus. Lentivirus particles are intracellular transduction-ready viruses containing plasmids with gene silencers. After transduction, cells express permanently gene silencers. The density of cell cultures 24 hours before transfection was 2×10^5 cells/10 cm2 in culture medium. […]
(§3) Two control groups containing a lentivirus and a gene silencer of smooth muscle protein 22α (SM22α) or smooth muscle myosin heavy chain (MYH11) were used to assess the vehicle. […] Thus, said two gene silencers, SM22α-siRNA and MYH11-siRNA, were marked with glyceraldehyde 3-phosphate dehydrogenase (GAPDH), called bioconjugates, to ensure by means of fluorescence microscopy that the gene silencers effectively entered VSMC and EC. […]

human EC = assay: EC proliferation in bottles containing human EC, vehicle nanoparticles (DSPE-PEG); type: cell-based; conditions: Experiment 5, control nanoparticles only, FIG. 7
Experimental: (§4) Experiment 5 was carried out by using nanoparticles of 1, 2 distearoyl-sn-glycero-3-phosphoethanolamine-Nmethxy (polyethyleneglycol)-2000 (DSPE-PEG) as a drug and gene silencer carrying vehicle instead of lentiviruses and plasmids which were used in the previous experiments. That being so, 8 groups were included for both assessment of nanoparticles as a vehicle and final confirmation of the previous results: control (nanoparticles only), MYH11-siRNA in nanoparticles, CNN1-siRNA in nanoparticles, sirolimus in nanoparticles, paclitaxel in nanoparticles, TNFRSF11B-siRNA in nanoparticles, NCF4-siRNA in nanoparticles, and MYL9-siRNA+GAPDH in nanoparticles.
(§5) The groups of sirolimus in nanoparticles and paclitaxel in nanoparticles were included to compare the efficacy in inhibiting VSMC proliferation. The groups of NFRSF11B-siRNA in nanoparticles and NCF4-siRNA in nanoparticles were tested again with a different vehicle for final confirmation of the negative results. The group of MYL9-siRNA+GAPDH in nanoparticles was studied to evaluate the vehicle efficacy, that is, to ensure that gene silencers would enter VSMC and EC using nanoparticles as a vehicle. […] MYL9-siRNA gene silencer was marked with GAPDH for later verification of its transfection into the cells through fluorescence microscopy. […]

human VSMC [1] = assay: VSMC proliferation in bottles containing human VSMC, gene silencers vehicle lentivirus and plasmid; type: cell-based; conditions: Experiment 2; lentivirus vehicle for siRNA; FIG. 1
Experimental: as §1, §2, §3

human VSMC [2] = assay: VSMC proliferation in bottles containing human VSMC, vehicle nanoparticles (DSPE-PEG); type: cell-based
Source text: as §4, with “[…],” for “Experiment 5 was carried out by using nanoparticles of 1,”
as §5, with “microscopy. Finally, pure nanoparticles were used as a vehicle control, that is, with neither drug nor gene silencer.” for “microscopy.”

swine coronary arteries = assay: In vivo study in swine: stent deployment in the coronary arteries, intravascular ultrasound follow-up; design: species or system Large White swine
Source text: Experiment 6 was an in vivo study in swine comparing MYH11-siRNA-eluting stent and CNN1-siRNA-eluting stent with bare metal stent and sirolimus-eluting stent.
Eighteen commercially available bare metal stents 2.75×15 mm were covered with MYH11-siRNA in nanoparticles (9 stents) or CNN1-siRNA in nanoparticles (9 stents) using a spray nozzle machine to create an abluminal cover in order to deliver the gene silencers locally in the inner surface of the vessel.
The hybrid lipid-polymer nanoparticles loaded with gene silencers (siRNA) were prepared by the nanoprecipitation method. The aqueous phase consisted of the gene silencer solubilized in 10 mL of water Milli Q under stirring and at a bath temperature of 30° C. The organic phase containing a lipid-cationic compound DSPE-PEG-NH2 (1,2-distearoyl-sn-glycero-3-phosphoethanolamine-N-[amino(polyethyleneglycol)-2000] and the PLGA polymer was then injected into the aqueous phase using a 20 G needle, the suspension being kept under moderate stirring for 5 minutes and then concentrated to a final volume of 10 mL in a rotatory evaporator to eliminate the organic solvent and adjust the final concentration. MYH11-siRNA and CNN1-siRNA concentrations ranging from 10 μg/ml to 100 μg/ml were tested.
After covering the abluminal surface of the 18 stents with MYH11-siRNA in nanoparticles (9 stents) or CNN1-siRNA in nanoparticles (9 stents), the stents were left to dry during 60 minutes, packaged in DuPont Tyvek™ and then sterilized with ethylene oxide (EtO) at 50 C.
Nine Large White swine were submitted to stent deployment in the coronary arteries, 1 stent being deployed in the left anterior descendent (LAD), 2 stents in the circumflex (CX) and 1 stent in the right coronary artery (RCA). The stents were deployed in a diameter ratio of 1.1 in relation to the coronary artery diameter, that is, with a mild oversize, in order to stimulate a similar inflammatory reaction that causes in-stent restenosis, to evaluate the efficacy of the gene silencers in controlling in-stent neointimal hyperplasia in a in vivo model. This oversized stent deployment protocol was previously validated (Lowe H C, Schwartz R S, Mac Neill B D, Jang I K, Hayase M, Rogers C, et al. The porcine coronary model of in-stent restenosis: Current status in the era of drug-eluting stents. Catheter Cardiovasclnterv. 2003:60:515-23.)
The prolonged time of stent re-endothelialization is the critical point of the current commercially available drug-eluting stents. So sirolimus and analogues as paclitaxel decrease the proliferation of vascular smooth muscle cells preventing in-stent neointimal hyperplasia, as well as suppress the proliferation of endothelial cells prolonging the time of stent re-endothelialization. […] Therefore, in order to evaluate the time of stent re-endothelialization, angiographic and intravascular ultrasound follow-up were scheduled at 30, 90 and 180 days after stent deployment.
The intravascular ultrasound analysis was performed tracing 31 frames for each stent with 0.5 mm apart each frame from the distal stent border to the proximal stent border. The data were analysed using one-way ANOVA with Bonferroni post hoc test.
The data of intravascular ultrasound in the index procedure as well as the results regarding in-stent neointimal proliferation at 30, 90 and 180 days after stent deployment are shown in table 1, while the comparative data of intravascular ultrasound regarding stent re-endothelialization at 30, 90 and 180 days after stent deployment are shown in table 2.

[3] = 180 days after stent deployment
[4] = intravascular ultrasound, follow-up (time not specified)

## CC(=O)O[C@H]1C(=O)[C@@]2(C)[C@H]([C@H](OC(=O)c3ccccc3)[C@]3(O)C[C@H](OC(=O)[C@H](O)[C@@H](NC(=O)c4ccccc4)c4ccccc4)C(C)=C1C3(C)C)[C@]1(OC(C)=O)CO[C@@H]1C[C@@H]2O [paclitaxel]
Human vascular EC
  EC cell proliferation in relation to the full control group: statistically significant inhibition
Human EC
  EC proliferation compared to the control group: statistically significant inhibition
Human VSMC [1]
  VSMC cell proliferation as compared to the full control group: statistically significant inhibition
Human VSMC [2]; Experiment 5, control nanoparticles only, FIG. 6
  inhibition of VSMC proliferation in comparison with the control: significant inhibition

## CO[C@H]1C[C@@H]2CC[C@@H](C)[C@@](O)(O2)C(=O)C(=O)N2CCCC[C@H]2C(=O)O[C@H]([C@H](C)C[C@@H]2CC[C@@H](O)[C@H](OC)C2)CC(=O)[C@H](C)/C=C(\C)[C@@H](O)[C@@H](OC)C(=O)[C@H](C)C[C@H](C)/C=C/C=C/C=C/1C [sirolimus]
Swine coronary arteries; 30 days after stent deployment
  Obstruction: average of percentual obstruction in the whole stent length: 11.4 ± 2.2%
  re-endothelialization (stent struts coverage) from intravascular ultrasound: 48 ± 3.3%
Swine coronary arteries; 90 days after stent deployment
  Obstruction: average of percentual obstruction in the whole stent length: 12.3 ± 2.1%
  re-endothelialization (stent struts coverage) from intravascular ultrasound: 89 ± 3.8%
Swine coronary arteries; [3]
  Obstruction: average of percentual obstruction in the whole stent length: 13.8 ± 2.4% b
  re-endothelialization (stent struts coverage) from intravascular ultrasound: 100%
Swine coronary arteries; intravascular ultrasound, follow-up
  LLL: late lumen loss: 0.33 ± 0.12 mm
Swine coronary arteries; [4]
  MLA (minimal luminal area) follow-up: 6.21 ± 0.16 mm^2 b
  MLD (minimal luminal diameter) follow-up: 2.68 ± 0.13 mm
Human VSMC [2]; Experiment 7, FIG. 8
  human VSMC proliferation: 19%
